Results taken from BigSolDB 2.1.

Oc1ccccc1/C=N/CC/N=C/c1ccccc1O
solubility (mole fraction)
Settings | in dichloromethane | in diethyl ether | in ethanol | in methanol | in n-hexane | in toluene
268.15 K | 0.0352 | 0.00119 | – | – | – | –
273.15 K | 0.0369 | 0.00136 | – | – | – | –
278.15 K | 0.0408 | 0.00165 | 0.00026 | 0.0003 | – | 0.00947
283.15 K | 0.0469 | 0.00193 | 0.00035 | 0.00036 | – | 0.0115
288.15 K | 0.0533 | 0.00232 | 0.00048 | 0.00049 | 0.00084 | 0.014
293.15 K | 0.0605 | 0.00281 | 0.00069 | 0.00064 | 0.00095 | 0.0164
298.15 K | 0.0696 | 0.0035 | 0.0009 | 0.00081 | 0.00112 | 0.0198
303.15 K | 0.0775 | 0.00455 | 0.00112 | 0.00099 | 0.00127 | 0.0256
308.15 K | – | – | 0.00147 | 0.00125 | 0.00143 | 0.0305
313.15 K | – | – | 0.00199 | 0.00155 | 0.00161 | 0.0379
318.15 K | – | – | 0.00252 | 0.00185 | 0.00186 | 0.047
